Data taken from patent publication US20230102554A1 (GB002, INC., priority 2019, published 2023).

Legend:
[1] = target: T1, Human PDGFRα, cytoplasmic domain (GST-PDGFRα) (Homo sapiens, UniProt P16234); assay: Human PDGFRα biochemical inhibition assay (off-chip Mobility Shift Assay)
T1 construct: made in house

[2] = target: T2, Human PDGFRβ, cytoplasmic domain (GST-PDGFRβ) (Homo sapiens, UniProt P09619); assay: Human PDGFRβ biochemical inhibition assay (off-chip Mobility Shift Assay)
T2 construct: made in house
T2 sequence (P09619 with tags, fused parts or gaps): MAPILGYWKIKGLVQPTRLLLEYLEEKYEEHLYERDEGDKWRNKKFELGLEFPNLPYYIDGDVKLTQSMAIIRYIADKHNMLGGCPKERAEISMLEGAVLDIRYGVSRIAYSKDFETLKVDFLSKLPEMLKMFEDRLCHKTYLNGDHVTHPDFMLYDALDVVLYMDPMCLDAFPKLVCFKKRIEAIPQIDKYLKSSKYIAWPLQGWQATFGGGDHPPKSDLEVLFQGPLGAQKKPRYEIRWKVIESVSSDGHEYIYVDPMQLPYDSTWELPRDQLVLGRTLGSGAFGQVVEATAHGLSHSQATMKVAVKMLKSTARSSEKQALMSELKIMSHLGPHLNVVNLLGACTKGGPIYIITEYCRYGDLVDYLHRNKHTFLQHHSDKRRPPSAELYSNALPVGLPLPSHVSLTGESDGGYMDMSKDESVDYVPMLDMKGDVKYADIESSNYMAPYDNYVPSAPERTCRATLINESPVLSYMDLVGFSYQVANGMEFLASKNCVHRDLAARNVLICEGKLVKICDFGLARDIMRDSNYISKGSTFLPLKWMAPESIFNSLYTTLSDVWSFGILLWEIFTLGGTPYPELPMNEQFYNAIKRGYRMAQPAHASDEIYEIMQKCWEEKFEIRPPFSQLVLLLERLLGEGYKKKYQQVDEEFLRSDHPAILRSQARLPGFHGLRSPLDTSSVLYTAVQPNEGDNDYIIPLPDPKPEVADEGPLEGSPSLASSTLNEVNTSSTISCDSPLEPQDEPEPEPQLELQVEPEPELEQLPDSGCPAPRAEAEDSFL
Method in brief: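 GST-tagged cytoplasmic domain (aa 557-1106) from baculovirus was incubated 1 h at room temperature with compound, CSKtide, ATP at Km and Mg²⁺ in HEPES buffer, pH 7.5. Phosphorylated and unphosphorylated peptide were separated by off-chip mobility shift, and the product ratio P/(P+S) gave percent inhibition.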

T1 sequence (P16234 550-1089 T674I): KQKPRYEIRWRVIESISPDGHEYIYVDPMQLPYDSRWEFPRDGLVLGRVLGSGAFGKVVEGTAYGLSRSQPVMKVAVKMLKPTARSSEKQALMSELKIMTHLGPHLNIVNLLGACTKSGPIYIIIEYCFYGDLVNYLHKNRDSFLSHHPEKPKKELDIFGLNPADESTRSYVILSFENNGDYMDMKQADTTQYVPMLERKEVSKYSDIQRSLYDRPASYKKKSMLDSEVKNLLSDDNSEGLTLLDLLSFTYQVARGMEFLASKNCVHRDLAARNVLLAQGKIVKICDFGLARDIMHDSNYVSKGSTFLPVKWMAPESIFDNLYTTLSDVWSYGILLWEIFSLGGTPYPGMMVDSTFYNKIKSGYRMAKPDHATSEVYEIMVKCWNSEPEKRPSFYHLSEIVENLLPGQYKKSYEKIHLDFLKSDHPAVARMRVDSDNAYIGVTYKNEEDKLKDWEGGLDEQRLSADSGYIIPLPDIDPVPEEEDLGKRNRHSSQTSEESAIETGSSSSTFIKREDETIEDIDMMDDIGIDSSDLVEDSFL

| IC50 [1] | IC50 [2] | Structure (SMILES) |
| --- | --- | --- |
| < 300 nM | < 300 nM | C[C@H](Nc1cnc2cnn(C)c2n1)c1cccc(NC(=O)c2cnn(C(F)F)c2)c1 [Compound 149, (S)-1-(difluoromethyl)-N-(3-(1-((1-methyl-1H-pyrazolo[3,4-b]pyrazin-6-yl)amino)ethyl)phenyl)-1H-pyrazole-4-carboxamide] |
| < 300 nM | < 300 nM | CCn1cc2ncc(N[C@@H](C)c3cc(NC(=O)c4ccc(OC(F)(F)F)nc4)ccc3F)nc2n1 [Compound 303, (S)-N-(3-(1-((2-ethyl-2H-pyrazolo[3,4-b]pyrazin-6-yl)amino)ethyl)-4-fluorophenyl)-6-(trifluoromethoxy)nicotinamide] |
| < 300 nM | < 300 nM | CCn1cc2ncc(N[C@@H](C)c3cccc(NC(=O)c4ccc(CN5CCOCC5)c(Cl)c4)c3)nc2n1 [Compound 416, (S)-3-chloro-N-(3-(1-((2-ethyl-2H-pyrazolo[3,4-b]pyrazin-6-yl)amino)ethyl)phenyl)-4-(morpholinomethyl)benzamide] |
| 300 to 1000 nM | ≥ 1000 nM | CCn1cc2ncc(N[C@@H](C)c3cccc(NC(=O)c4ccc(N5CCN(C)CC5)c(F)c4)c3)nc2n1 [Compound 367, (S)-N-(3-(1-((2-ethyl-2H-pyrazolo[3,4-b]pyrazin-6-yl)amino)ethyl)phenyl)-3-fluoro-4-(4-methylpiperazin-1-yl) benzamide] |
| ≥ 1000 nM | ≥ 1000 nM | CCn1cc2ncc(N[C@@H](C)c3cc(NC(=O)c4ccc(C(F)(F)F)nc4)ccc3C(F)(F)F)nc2n1 [Compound 459, (S)-N-(3-(1-((2-ethyl-2H-pyrazolo[3,4-b]pyrazin-6-yl)amino)ethyl)-4-(trifluoromethyl)phenyl)-6-(trifluoromethyl) nicotinamide] |
| < 300 nM | < 300 nM | C[C@H](Nc1cnc2cnn(C)c2n1)c1cccc(NC(=O)c2cc(C(C)(C)C)nn2C)c1 [Compound 159, (S)-3-(tert-butyl)-1-methyl-N-(3-(1-((1-methyl-1H-pyrazolo[3,4-b]pyrazin-6-yl)amino)ethyl)phenyl)-1H-pyrazole-5-carboxamide] |
| 300 to 1000 nM | ≥ 1000 nM | CCn1cc2ncc(N[C@@H](C)c3cccc(NC(=O)Cc4ccc(OC)cn4)c3)nc2n1 [Compound 697, (S)-N-(3-(1-((2-ethyl-2H-pyrazolo[3,4-b]pyrazin-6-yl)amino)ethyl)phenyl)-2-(5-methoxypyridin-2-yl)acetamide] |
| < 300 nM | < 300 nM | CCn1cnc2ccc(C(=O)Nc3cccc([C@H](C)Nc4cnc5cnn(C)c5n4)c3)cc21 [Compound 74, (S)-1-ethyl-N-(3-(1-((1-methyl-1H-pyrazolo[3,4-b]pyrazin-6-yl)amino)ethyl)phenyl)-1H-benzo[d]imidazole-6-carboxamide] |
| < 300 nM | < 300 nM | CCn1cc2ncc(N[C@@H](C)c3cc(NC(=O)c4ccc(Cl)c(C)c4)ccc3C)nc2n1 [Compound 508, (S)-4-chloro-N-(3-(1-((2-ethyl-2H-pyrazolo[3,4-b]pyrazin-6-yl)amino)ethyl)-4-methylphenyl)-3-methylbenzamide] |
| < 300 nM | < 300 nM | CCOc1ncc(C(=O)Nc2cccc([C@H](C)Nc3cnc4cnn(C)c4n3)c2)cc1C [Compound 129, (S)-6-ethoxy-5-methyl-N-(3-(1-((1-methyl-1H-pyrazolo[3,4-b]pyrazin-6-yl)amino)ethyl)phenyl)nicotinamide] |
| < 300 nM | < 300 nM | CCc1ccc(C(=O)Nc2cccc([C@H](C)Nc3cnc4cnn(C)c4n3)c2)cc1C [Compound 251, (S)-4-ethyl-3-methyl-N-(3-(1-((1-methyl-1H-pyrazolo[3,4-b]pyrazin-6-yl)amino)ethyl)phenyl)benzamide] |
| < 300 nM | < 300 nM | CCn1cc2ncc(N[C@@H](C)c3cccc(NC(=O)c4ccc(OC(F)(F)F)c(Cl)c4)c3)nc2n1 [Compound 437, (S)-3-chloro-N-(3-(1-((2-ethyl-2H-pyrazolo[3,4-b]pyrazin-6-yl)amino)ethyl)phenyl)-4-(trifluoromethoxy)benzamide] |
| < 300 nM | < 300 nM | C[C@H](Nc1cnc2cnn(C)c2n1)c1cccc(NC(=O)c2cnc3ccn(C)c3c2)c1 [Compound 46, (S)-1-methyl-N-(3-(1-((1-methyl-1H-pyrazolo[3,4-b]pyrazin-6-yl)amino)ethyl)phenyl)-1H-pyrrolo[3,2-b] pyridine-6-carboxamide] |
| < 300 nM | < 300 nM | COC(=O)c1ccc(C(=O)Nc2cccc([C@H](C)Nc3cnc4cnn(C)c4n3)c2)cc1OC [Compound 261, methyl (S)-2-methoxy-4-((3-(1-((1-methyl-1H-pyrazolo[3,4-b]pyrazin-6-yl)amino)ethyl)phenyl)carbamoyl)benzoate] |
| < 300 nM | < 300 nM | C[C@H](Nc1cnc2cnn(C)c2n1)c1cccc(NC(=O)c2cnn(C3CCC3)c2)c1 [Compound 151, (S)-1-cyclobutyl-N-(3-(1-((1-methyl-1H-pyrazolo[3,4-b]pyrazin-6-yl)amino)ethyl)phenyl)-1H-pyrazole-4-carboxamide] |
| < 300 nM | < 300 nM | C[C@H](Nc1cnc2cn(CC3CNC3)nc2n1)c1cc(NC(=O)c2cnc(C(F)(F)F)s2)ccc1F [Compound 391, (S)-N-(3-(1-((2-(azetidin-3-ylmethyl)-2H-pyrazolo[3,4-b]pyrazin-6-yl)amino)ethyl)-4-fluorophenyl)-2-(trifluoromethyl)thiazole-5-carboxamide] |
| ≥ 1000 nM | ≥ 1000 nM | Cc1cncc(C(=O)Nc2cccc([C@H](C)Nc3cncc4c3cnn4C)c2)c1 [Compound 750, (S)-5-methyl-N-(3-(1-((1-methyl-1H-pyrazolo[3,4-c]pyridin-4-yl)amino)ethyl)phenyl)nicotinamide] |
| < 300 nM | < 300 nM | Cc1cncc(C(=O)Nc2cccc([C@H](C)Nc3cnc4cn(CC5CC5)nc4n3)c2)c1 [Compound 275, (S)-N-(3-(1-((2-(cyclopropylmethyl)-2H-pyrazolo[3,4-b]pyrazin-6-yl)amino)ethyl)phenyl)-5-methylnicotinamide] |
| < 300 nM | < 300 nM | CCn1cc2ncc(N[C@@H](C)c3cccc(NC(=O)c4cnc(N(C)C)c(C)c4)c3)nc2n1 [Compound 348, (S)-6-(dimethylamino)-N-(3-(1-((2-ethyl-2H-pyrazolo[3,4-b]pyrazin-6-yl)amino)ethyl)phenyl)-5-methylnicotinamide] |
| < 300 nM | < 300 nM | CCn1cc2ncc(N[C@@H](C)c3cc(NC(=O)Cc4ccc(C)c(N5CCN(C)CC5)c4)ccc3C)nc2n1 [Compound 680, (S)-N-(3-(1-((2-ethyl-2H-pyrazolo[3,4-b]pyrazin-6-yl)amino)ethyl)-4-methylphenyl)-2-(4-methyl-3-(4-methylpiperazin-1-yl)phenyl) acetamide] |
| < 300 nM | < 300 nM | C[C@H](Nc1cnc2cnn(C)c2n1)c1cccc(NC(=O)c2ccc(NC3CC3)nc2)c1 [Compound 121, (S)-6-(cyclopropylamino)-N-(3-(1-((1-methyl-1H-pyrazolo[3,4-6]pyrazin-6-yl)amino)ethyl)phenyl)nicotinamide] |
| ≥ 1000 nM | ≥ 1000 nM | CCn1cc2ncc(N[C@@H](C)c3cccc(NC(=O)c4cnc(CO)s4)c3)nc2n1 [Compound 363, (S)-N-(3-(1-((2-ethyl-2H-pyrazolo[3,4-b]pyrazin-6-yl)amino)ethyl)phenyl)-2-(hydroxymethyl)thiazole-5-carboxamide] |
